Measurements taken from US5589510A, “Method for inhibiting retroviral infection by administering a naphthalenesulfonic acid compound” (priority 1995, dated 1996).
Like-named read-outs stand apart in the source and are kept apart here.

Experiments:
[1] = test system: TA98, TA1535, TA1537, TA1538, TA100 and W2P2uvr; assay: Ames Test (in the presence of S9); type: cell-based, Salmonella typhimurium; settings: for Ames Test, specific mutagenic activity: the higher the value, the higher the mutagenicity
Excerpt: Six Salmonella typhimuriumstrai strains, TA98, TA1535, TA1537, TA1538, TA100 and W2P2uvr were used in this experiment.

[2] = LD50, intravenous, mice; type: in vivo; settings: mouse, in vivo, female mice, mortalities within 1 week
Experimental: The test material was administered intravenously to 5 female mice in five increasing doses. Mortalities were recorded within 1 week, and the LD50 was determined with the aid of statistical calculations.

[3] = test system: HIV-1 RF; assay: Antiviral assay, Experimental Protocol I (compound added after infection); type: cell-based; settings: Human immunodeficiency virus 1, 240 h, p24 ELISA, read-out: % Inhibition (after day 10); for inhibition at 1.25 µg/mL: 1.25 μg/ml; for inhibition at 2.5 µg/mL: 2.5 μg/ml; for inhibition at 5 µg/mL: 5 μg/ml; for inhibition at 0.6 µg/mL: 0.6 μg/ml
Experimental: HIV-1 infectivity studies were conducted in CEM, H9, MT2 cells and peripheral blood mononuclear cells (PBMC). CEM, H9 and MT2 were grown in RPMI1640 medium, 10% heat-inactivated fetal bovine serum (FBS). PBMCs were stimulated with 4 μg/ml PHA for 48 hours in RPMI1640, 10% FBS before HIV-1 infection. After HIV-1 infection, PBMCs were maintained in RPMI 1640, 10% FBS and 10 10 units/ml IL-2. The major HIV-1 isolates used were MN, IIIB, SF2, AZT-sensitive A018 and AZT-resistant A018 provided by NIH AIDS research and reference reagent program. Two major antiviral assays were developed to determine the antiviral activities of the compounds of this invention (as inhibitors).
I. The cells were infected with HIV-1 RF or IIIB at an infectivity multiplicity (moi) of 0.001 in the absence of a compound of this invention for one hour. HIV-1 infected cells were washed once with PBS, resuspended in RPMI1640, 10% FBS medium and distributed in 24-well culture dishes (5×10^5 cells per well) in the presence of a compound of this invention as inhibitor. […]

Structure (SMILES)	Ames Test result [1]	LD50 at 168 h [2] [mg/kg]	inhibition at 1.25 µg/mL ([3]; 10% FCS) [%]	inhibition at 2.5 µg/mL ([3]; 10% FCS) [%]	inhibition at 5 µg/mL ([3]; 10% FCS) [%]	further results
COc1cc(N=Nc2c(S(=O)(=O)O)cc3cc(S(=O)(=O)O)cc(NC(=O)c4ccccc4)c3c2O)c(OC)cc1N=Nc1c(S(=O)(=O)O)cc2cc(S(=O)(=O)O)cc(NC(=O)Nc3ccc(F)cc3)c2c1O [Compound 24]	Negative	140	–	–	–	–
COc1cc(N=Nc2c(S(=O)(=O)O)cc3cc(S(=O)(=O)O)cc(NC(=O)c4cccc5ccccc45)c3c2O)c(OC)cc1N=Nc1c(S(=O)(=O)O)cc2cc(S(=O)(=O)O)cc(NC(=O)c3ccc(C(F)(F)F)cc3)c2c1O [Compound 19]	Negative	140	–	–	–	–
COc1cc(N=Nc2c(O)ccc3ccc(S(=O)(=O)O)cc23)c(OC)cc1N=Nc1c(S(=O)(=O)O)cc2cc(S(=O)(=O)O)cc(NC(=O)Cc3cccc4ccccc34)c2c1O [Compound 42]	Negative	–	28	99	99	–
COc1cc(N=Nc2c(S(=O)(=O)O)cc3cc(S(=O)(=O)O)cc(NC(=O)c4ccccc4OC)c3c2O)c(OC)cc1N=Nc1c(S(=O)(=O)O)cc2cc(S(=O)(=O)O)cc(NC(=O)c3ccccc3)c2c1O [Compound 25]	Negative	160	–	–	–	–
COc1cc(N=Nc2c(S(=O)(=O)O)cc3cc(S(=O)(=O)O)cc(NC(=O)c4ccc(C#N)cc4)c3c2O)c(OC)cc1N=Nc1c(S(=O)(=O)O)cc2cc(S(=O)(=O)O)cc(NC(=O)c3ccccc3)c2c1O [Compound 26]	Negative	150	–	–	–	–
COc1cc(N=Nc2c(S(=O)(=O)O)cc3cc(S(=O)(=O)O)cc(NC(=O)c4cccc(Cl)c4Cl)c3c2O)c(OC)cc1N=Nc1c(S(=O)(=O)O)cc2cc(S(=O)(=O)O)cc(NC(=O)c3cc(Cl)ccc3Cl)c2c1O [Compound 9]	Negative	150	99	99	100	inhibition at 0.6 µg/mL ([3]; 10% FCS): 63%; inhibition at 0.6 µg/mL ([3]; 50% Human Serum): 0%; inhibition at 1.25 µg/mL ([3]; 50% Human Serum): 0%; inhibition at 2.5 µg/mL ([3]; 50% Human Serum): 16%; inhibition at 5 µg/mL ([3]; 50% Human Serum): 90%
COc1cc(N=Nc2c(O)ccc3ccc(S(=O)(=O)O)cc23)c(OC)cc1N=Nc1c(S(=O)(=O)O)cc2cc(S(=O)(=O)O)cc(NC(=O)c3cccnc3)c2c1O [Compound 40]	Negative	–	–	–	–	–
O=C(Nc1cc(S(=O)(=O)O)cc2cc(S(=O)(=O)O)c(N=Nc3ccc(N=Nc4c(S(=O)(=O)O)cc5cc(S(=O)(=O)O)cc(NC(=O)c6cccc(Cl)c6Cl)c5c4O)cc3)c(O)c12)c1ccc(Cl)cc1Cl [Compound 29]	Negative	–	–	–	–	–
CCC(C)(C)c1ccc(OCC(=O)Nc2cc(S(=O)(=O)O)cc3cc(S(=O)(=O)O)c(N=Nc4cc(OC)c(N=Nc5c(O)ccc6ccc(S(=O)(=O)O)cc56)cc4OC)c(O)c23)c(C(C)(C)CC)c1 [Compound 43]	Negative	–	0	0	99	–
COc1cc(N=Nc2c(O)ccc3ccc(S(=O)(=O)O)cc23)c(OC)cc1N=Nc1c(S(=O)(=O)O)cc2cc(S(=O)(=O)O)cc(NC(=O)c3ccc(Cl)cc3Cl)c2c1O [Compound 34]	Negative	–	–	–	–	–
COc1cc(N=Nc2c(O)ccc3ccc(S(=O)(=O)O)cc23)c(OC)cc1N=Nc1c(S(=O)(=O)O)cc2cc(S(=O)(=O)O)cc(NC(=O)c3cccc(C(F)(F)F)c3)c2c1O [Compound 36]	Negative	–	–	–	–	–
COc1cc(N=Nc2c(O)ccc3ccc(S(=O)(=O)O)cc23)c(OC)cc1N=Nc1c(S(=O)(=O)O)cc2cc(S(=O)(=O)O)cc(NC(=O)c3ccc(C#N)cc3)c2c1O [Compound 37]	Negative	–	–	–	–	–
Cc1cc(N=Nc2c(S(=O)(=O)O)cc3cc(S(=O)(=O)O)cc(NC(=O)c4cccc(Cl)c4Cl)c3c2O)c(C)cc1N=Nc1c(S(=O)(=O)O)cc2cc(S(=O)(=O)O)cc(NC(=O)c3ccc(Cl)cc3Cl)c2c1O [Compound 31]	Negative	–	0	88	100	–
COc1cc(N=Nc2c(S(=O)(=O)O)cc3cc(S(=O)(=O)O)cc(NC(=O)c4ccc(Cl)cc4Cl)c3c2O)c(OC)cc1N=Nc1c(S(=O)(=O)O)cc2cc(S(=O)(=O)O)cc(NC(=O)Cc3cccc4ccccc34)c2c1O [Compound 20]	Positive	150	–	–	–	Ames Test, specific mutagenic activity [1]: 0.08 colony no/μg
O=C(Nc1cc(S(=O)(=O)O)cc2cc(S(=O)(=O)O)c(N=Nc3ccc(N=Nc4c(S(=O)(=O)O)cc5cc(S(=O)(=O)O)cc(NC(=O)c6cccc(Cl)c6Cl)c5c4O)c(Cl)c3)c(O)c12)c1ccc(Cl)cc1Cl [Compound 30]	Negative	–	–	–	–	–
COc1cc(N=Nc2c(S(=O)(=O)O)cc3cc(S(=O)(=O)O)cc(NC(=O)c4cccc([N+](=O)[O-])c4)c3c2O)c(OC)cc1N=Nc1c(S(=O)(=O)O)cc2cc(S(=O)(=O)O)cc(NC(=O)c3ccccc3)c2c1O [Compound 22]	Positive	140	–	–	–	Ames Test, specific mutagenic activity [1]: 0.4 colony no/μg
O=C(Nc1cc(S(=O)(=O)O)cc2cc(S(=O)(=O)O)c(N=Nc3ccc(N=Nc4c(O)ccc5ccc(S(=O)(=O)O)cc45)cc3Cl)c(O)c12)c1ccccc1 [Compound 45]	–	–	92	99	99	–
COc1cc(N=Nc2c(O)ccc3ccc(S(=O)(=O)O)cc23)c(OC)cc1N=Nc1c(S(=O)(=O)O)cc2cc(S(=O)(=O)O)cc(NC(=O)COc3ccccc3)c2c1O [Compound 41]	Negative	–	–	–	–	–
COc1cc(N=Nc2c(O)ccc3ccc(S(=O)(=O)O)cc23)c(OC)cc1N=Nc1c(S(=O)(=O)O)cc2cc(S(=O)(=O)O)cc(NC(=O)c3ccc4ccccc4c3)c2c1O [Compound 39]	Negative	–	–	–	–	–
COc1cc(N=Nc2c(O)ccc3ccc(S(=O)(=O)O)cc23)c(OC)cc1N=Nc1c(S(=O)(=O)O)cc2cc(S(=O)(=O)O)cc(NC(=O)c3cccc4ccccc34)c2c1O [Compound 38]	Negative	–	99	99	100	–
COc1cc(N=Nc2c(S(=O)(=O)O)cc3cc(S(=O)(=O)O)cc(NC(=O)c4ccc(C)cc4)c3c2O)c(OC)cc1N=Nc1c(S(=O)(=O)O)cc2cc(S(=O)(=O)O)cc(NC(=O)c3ccccc3)c2c1O [Compound 23]	Negative	130	–	–	–	–
COc1cc(N=Nc2c(S(=O)(=O)O)cc3cc(S(=O)(=O)O)cc(NC(=O)c4cccc(Cl)c4Cl)c3c2O)c(OC)cc1N=Nc1c(S(=O)(=O)O)cc2cc(S(=O)(=O)O)cc(NC(=O)Cc3ccccc3)c2c1O [Compound 2]	Negative	150	60	73	98	–
COc1cc(N=Nc2c(S(=O)(=O)O)cc3cc(S(=O)(=O)O)cc(NC(=O)c4cccc(Cl)c4Cl)c3c2O)c(OC)cc1N=Nc1c(S(=O)(=O)O)cc2cc(S(=O)(=O)O)cc(NC(=O)c3cccc(Cl)c3Cl)c2c1O [Compound 8]	Negative	160	99	99	99	inhibition at 0.6 µg/mL ([3]; 10% FCS): 87%; inhibition at 1.25 µg/mL ([3]; 50% Human Serum): 0%; inhibition at 2.5 µg/mL ([3]; 50% Human Serum): 0%; inhibition at 5 µg/mL ([3]; 50% Human Serum): 95%
